Measured values taken from patent US20120135089A1, “E3 LIGASE INHIBITORS” (priority 2009, published 2012).

Legend:
[1] = tested on: RKO, RKO E6, H1299 and MEF's; test: cell cycle analysis by propidium iodide flow cytometry; format: cell-based; conditions: two days incubation
Experimental: RKO, RKO E6, H1299 and MEF's were seeded and treated with designated concentration of MEL23. After two days incubation, cells were harvested and fixed in ethanol, followed by staining in a solution of 7.3 μM RNaseA and 98.7 μM propidium iodide (Sigma, St. Louis, Mo.). The samples were read on a FACS Calibur flow cytometer (BD Biosciences, San Jose, Calif.) and analyzed with CeliQuest software (BD Biosciences).

p53 ubiquitination = test: cell-based p53 ubiquitination assay in H1299 cells; set-up: species or system human; conditions: H1299 transfected with p53, Mdm2, ubiquitin; 10 μg/ml pre-treatment, 10 μM MG132
Experimental: To obtain the results shown in FIG. 4A, Mdm2-luciferase cells were transfected with ubiquitin-HA and treated 8 hours later with 10 μg/ml (28 μM) MEL23, 10 μg/ml (31 μM) MEL24, or a DMSO control. After 16 hours, cells were additionally treated with 10 μM MG132 or a DMSO control. After 3 hours, cells were lysed and immunoprecipitated for 3 hours with anti-HA affinity matrix. Total lysates and immunoprecipitated samples were analyzed by Western blotting using anti-Mdm2 antibody. NT indicates a no treatment control. […] After 8 hours, cells were treated with 10 μg/ml (28 μM) MEL23, 10 μg/ml (31 μM) MEL24, or a DMSO control. After 16 hours, cells were additionally treated with 10 μM MG132 or a DMSO control. After 3 hours cells were lysed and analyzed by Western blotting using anti-p53 antibody. “p53-Ub” indicates the slower migrating species of the protein that are the ubiquitin-conjugated forms.
To test the effects of the MEL compounds on p53 ubiquitination, H1299 cells were transfected with plasmids expressing p53, Mdm2, and ubiquitin and pre-treated with 10 μg/ml MEL23 or MEL24, followed by treatment with 10 μM MG132. Ubiquitination of p53 was analyzed by Western blotting. […] In fact, the half-life of p53 increased from an hour to greater than 6 hours with 5 μg/ml MEL23 treatment (FIG. 32). Thus, treatment with MEL23 and MEL24 inhibits ubiquitin conjugation to Mdm2 and p53.

Mdm2 and p53 levels = test: Western blot of Mdm2 and p53 protein levels in cell lines; format: cell-based, human; conditions: 6 hours; for Mdm2 and p53 levels: U2OS, RKO, HCT116 (p53 wild-type), 5 μg/ml; for p53 levels in RKO and RKO-E6 cells: isogenic RKO and RKO-E6 (HPV-E6) cells; for levels of endogenous and ectopically expressed Mdm2: p53-null H1299 cells
Experimental: Cells were plated in 384-well format and treated with MG132 (2 hours) or cycloheximide (30 minutes). Steadylite luminescence buffer (PerkinElmer) was added and the relative luminescence levels determined on a Victor3 Plate Reader. Each graph represents the median of 5 replicates normalized to a no treatment control, and one standard deviation is shown. […] The graphs and EC50 values were determined using Graphpad PRISM®. […] U2OS, RKO, and HCT116 cells (p53 wild-type) were incubated with 5 μg/ml (14 μM) of MEL23, 5 μg/ml (15 μM) of MEL24, or 10 μM of MG132 for 6 hours. Cells were lysed and analyzed by Western blotting using anti-Mdm2, anti-p53, and anti-eIF4E antibodies. NT indicates a no treatment control. […] MCF7 cells (p53 wild-type) were incubated with 30 μg/ml (51 μM) etoposide alone or in combination with 50 μM AlIn or 5 μg/ml (14 μM) MEL23, or 5 μg/ml (15 μM) MEL24 for 16 hours. Cells were lysed and analyzed by Western blotting using anti-MDMX and anti-actin antibodies.
(§1) H1229 cells were transfected with Mdm2-Flag or remained untransfected. Cells were treated with 5 μg/ml (14 μM) MEL23, 5 μg/ml (15 μM) MEL24, 10 μM MG132, or 1 μg/ml of doxorubicin for 6 hours. Cells were lysed and analyzed by Western blotting using anti-Mdm2 and anti-actin antibodies. The lower band indicated with a star seen with the Mdm2 antibody is a non-specific band. NT indicates a no treatment control. […] RKO and RK0-E6 cells were treated with 5 μg/ml (14 μM) MEL23, 5 μg/ml (15 μM) MEL24, 10 μM MG132, 0.5 μg/ml doxorubicin, 0.5 μg/ml camptothecin or 25 μg/ml Etoposide for 6 hours. Cells were lysed and analyzed by Western blotting using anti-Mdm2, anti-p53, and anti-actin antibodies. The lower band indicated with a star seen with the anti-Mdm2 antibody is a non-specific band. […] RKO cells were treated with 5 μg/ml (14 μM) MEL23, 5 μg/ml (15 μM) MEL24, 10 μM MG132 or 2 μg/ml doxorubicin for 6 hours. Cells were lysed and analyzed by Western blotting using anti-Mdm2, anti-p53, anti-phospho-Ser15 p53, and anti-eiF4E antibodies.
(§2) Cells were seeded and treated with the indicated compound(s). Cells were lysed after each time point in a buffer of 50 mM TrisHCl pH 7.5, 200 mM NaCl, 0.5% NP-40, and 1 complete mini EDTA-free protease inhibitor cocktail tablet per 10 mL of buffer (Roche, Cat. No. 8360170). Protein content was quantified using a Biorad protein assay reagent (Bio-Rad Laboratories, Hercules, Calif., Cat. No. 500-0006). SDS sample buffer was added to the samples, and the mixture was boiled for 5 minutes. Equal amounts of protein were resolved on a 1D SDS-PAGE gel. Following separation proteins were transferred to nitrocellulose membrane, blocked with 5% milk, and then incubated with primary antibody overnight at 4° C. The membrane was incubated with secondary-HRP antibody for 45 minutes at room temperature and developed with SuperSignal West Pico Substrate (Pierce, Rockford, Ill., Cat. No. 34080).
Cells were lysed and analyzed by Western blotting using anti-Mdm2, anti-p53, and anti-actin antibodies. The lower band seen with the Mdm2 antibody is a non-specific band. NT indicates no treatment control.
Referring now to FIG. 28e, endogenous Mdm2 and p53 protein levels with MEL17 treatment are shown. Briefly, U2OS, RKO, and HCT116 cells (p53 wild-type) were incubated with 5 μg/ml of MEL17 or 10 μM of MG132 for 6 hours. Cells were lysed and analyzed by Western blotting using anti-Mdm2, anti-p53, and anti-actin antibodies. The lower band seen with the Mdm2 antibody is a non-specific band.

[2] = tested on: p53-Ser15 phosphorylation; test: p53-Ser15 phosphorylation in RKO cells (Western blot); format: cell-based, human; conditions: 6 hours
Experimental: as §1, §2

Structure (SMILES) | cell cycle [1] | p53 ubiquitination in cells (p53 ubiquitination) | Mdm2 and p53 levels (Mdm2 and p53 levels) | p53 levels in RKO and RKO-E6 cells (Mdm2 and p53 levels) | levels of endogenous and ectopically expressed Mdm2 (Mdm2 and p53 levels) | phosphorylation of p53 at serine-15 [2]
CCCCn1c(=O)[nH]c(O)c(C2NCCc3c2[nH]c2ccccc32)c1=O (stereo not drawn) [MEL23] | causes G2 cell cycle arrest | eliminated by pre-treatment | increased | only increased levels of p53 in RKO cells | increased after treatment | lack of phosphorylation of p53 at serine-15
Cn1c(O)c(C2NCCc3c2[nH]c2ccccc32)c(=O)n(C)c1=O (stereo not drawn) [MEL24] | promotes G2 cell cycle arrest | eliminated by pre-treatment | increased | only increased levels of p53 in RKO cells | increased after treatment | lack of phosphorylation of p53 at serine-15
